Article PMC7144377, “In Vitro and In Vivo Characterization of Dibenzothiophene Derivatives [^125I]Iodo-ASEM and [^18F]ASEM as Radiotracers of Homo- and Heteromeric α7 Nicotinic Acetylcholine Receptors” (Molecules, 2020)

Columns and labels:
[1] = target: T1, α7 nicotinic acetylcholine receptor (α7 nAChR) (Sus scrofa, UniProt F1SNR6); assay: displacement of […]Iodo-ASEM at […] by autoradiography; settings: read-out: [^125I]Iodo-ASEM Binding in the Pig Cortex, Layers 1-3 (%, mean ± S.E.M.)
T1 construct: gene CHRNA7; native receptor in pig cortex sections
T1 sequence (F1SNR6 20-499): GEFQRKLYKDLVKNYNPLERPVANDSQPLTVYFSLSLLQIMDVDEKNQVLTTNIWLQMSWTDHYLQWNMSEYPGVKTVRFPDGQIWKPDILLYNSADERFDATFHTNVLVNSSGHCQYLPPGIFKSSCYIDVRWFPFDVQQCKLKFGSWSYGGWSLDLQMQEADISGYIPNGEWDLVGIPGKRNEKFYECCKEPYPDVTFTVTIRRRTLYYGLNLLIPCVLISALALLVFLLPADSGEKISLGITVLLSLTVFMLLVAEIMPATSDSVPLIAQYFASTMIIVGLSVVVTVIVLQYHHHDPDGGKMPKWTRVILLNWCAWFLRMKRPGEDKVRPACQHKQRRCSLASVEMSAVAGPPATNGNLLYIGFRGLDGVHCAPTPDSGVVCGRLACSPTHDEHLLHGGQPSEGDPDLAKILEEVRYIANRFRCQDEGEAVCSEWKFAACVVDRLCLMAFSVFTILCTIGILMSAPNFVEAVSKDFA

[2] = target: T1, α7 nicotinic acetylcholine receptor (α7 nAChR); assay: displacement of […]Iodo-ASEM at […] by autoradiography; also blocks […]ASEM PET in vivo; settings: read-out: [^125I]Iodo-ASEM Binding in the Pig Cortex, Layers 1-3 (%, mean ± S.E.M.)

| activity at 10 µM [2] [%] | Structure (SMILES) | activity at 10 µM [1] [%] |
| --- | --- | --- |
| – | CN1C[C@@H]2CN(c3ccc(-c4ccccc4)nn3)C[C@@H]2C1 [A-582941] | 3.22 ± 0.28 |
| 2.92 ± 0.35 | O=C(Oc1ccc(Br)cc1)N1CCN2CCC1CC2 [SSR-180,711] | – |
| – | O=C(N[C@@H]1C2CCN(CC2)[C@H]1Cc1cccnc1)c1cc2ccccc2o1 [TC-5619] | 7.88 ± 1.65 |
| – | CCN1C[C@]2(COC(=O)c3ccccc3N3C(=O)C[C@H](C)C3=O)CC[C@H](OC)[C@@]34[C@@H]5C[C@H]6[C@H](OC)[C@@H]5[C@](O)(C[C@@H]6OC)[C@@](O)([C@@H](OC)[C@H]23)[C@@H]14 [methyllycaconitine] | 20.5 ± 2.18 |
